Test results from patent US20060154990A1, “Use of MEK inhibitors in treating abnormal cell growth” (AGOURON PHARMACEUTICALS, INC., priority 2004, published 2006).
“And” between values parts separate entries of the source, which are not always exact repeats. Identical values can stand only once.

Key:
[1] = system: ERK phosphorylation in colon 26 cells; assay: cells; settings: Mus musculus, Colon 26, read-out: Cellular activity IC50
[2] = Metabolites of [14C] Compound 1 in liver microsomes; assay type: in vitro ADME, rat; settings: [C-14] Compound 1 10 μM, 90 mins
Procedure: (§1) Incubations were performed in hepatocytes for 3 hours and liver microsomes for 1.5 hours and were stopped with the addition of methanol. HPLC, in conjuction with ionspray 3D iontrap mass spectrometry, and simultaneous radioactive monitoring were used to detect and identify the resulting metabolites.
(§2) This acid cleavage product is further metabolized to form hydroxylated (M 11, 16% in rat) and hydroxylated, defluorinated products (M 17, 19% in rat).

[3] = as above; assay type: in vitro ADME, dog; settings: [C-14] Compound 1 10 μM, 90 mins
Procedure: as §1, §2

[4] = Metabolites of [14C] Compound 1 in cryopreserved hepatocytes; assay type: in vitro ADME, human; settings: [C-14] Compound 1 10 μM, 180 mins, listed as M 15
Procedure: as §1
(§3) Metabolite identification of radiolabeled Compound 1 was performed after incubation with rat, dog, monkey and human cryopreserved hepatocytes and liver microsomes. […] Besides glucuronidation, metabolites derived from other clearance pathways are also observed. For instance, M 15 (acid cleavage product) accounts for 11% of the total radioactivity in the human chromatogram.

[5] = Metabolites of [14C] Compound 1 in liver microsomes; assay type: in vitro ADME, human; settings: [C-14] Compound 1 10 μM, 90 mins, listed as M 15
Procedure: as §1, §2

[6] = system: ERK phosphorylation in tumor cells; assay: ERK phosphorylation in tumor cells grown in culture with 10% serum; assay type: cell-based; settings: tumor cells in culture, 10% serum; read-out: IC50, reducing ERK phosphorylation
[7] = Metabolites of [14C] Compound 1 in cryopreserved hepatocytes; assay type: in vitro ADME, monkey; settings: [C-14] Compound 1 10 μM, 180 mins
Procedure: as §1, §3

[8] = target: MEK1 (Homo sapiens, UniProt Q02750); assay: Cascade assay with raf-1, MEK1 and ERK1 (DELFIA readout); assay type: biochemical; settings: purified MEK1, cascade assay raf-1/MEK1/ERK1; read-out: MEK enzyme IC50
[9] = Plasma pharmacokinetics after multiple oral doses in advanced cancer patients; settings: for AUC of Compound 2 as % of the parent (median): human plasma
Procedure: Pharmacokinetic data are presented for the first 38 subjects.
Blood samples were collected from patients into a purple-top potassium EDTA Vacutainer tube. Following mixing with gentle inversion (8-10 times), tubes were centrifuged within 20 minutes at 1000×g for 15 minutes, to harvest plasma. Plasma samples were stored at −20° C. until analysis.
The following results are based on preliminary pharmacokinetic parameters from the 38 subjects, estimated using nominal collection times and quality-controlled, non quality-assured bioanalytical data. Pharmacokinetic parameters were determined by the non-compartmental method using WINNONLIN Professional Edition (Version 4.1). […] The maximum observed concentration (Cmax) was obtained by inspection of the concentration data. The time to reach the Cmax was the first time at which Cmax is observed and obtained by inspection of the data. The pre-dose concentration (Ctrough) was obtained by inspection of the concentration data.

[10] = system: pERK in C26 tumors; assay: Tumor pERK inhibition and PK-PD in C26 tumor-bearing mice; assay type: in vivo; settings: C26 tumor-bearing animals
[11] = Metabolites of [14C] Compound 1 in cryopreserved hepatocytes; assay type: in vitro ADME, dog; settings: [C-14] Compound 1 10 μM, 180 mins
Procedure: as §1, §3

[12] = Metabolites of [14C] Compound 1 in liver microsomes; assay type: in vitro ADME, monkey; settings: [C-14] Compound 1 10 μM, 90 mins
Procedure: as §1, §2

[13] = Metabolites of [14C] Compound 1 in cryopreserved hepatocytes; assay type: in vitro ADME, rat; settings: [C-14] Compound 1 10 μM, 180 mins
Procedure: as §1, §3

Chain of MEK1 (Q02750 whole entry, species assumed): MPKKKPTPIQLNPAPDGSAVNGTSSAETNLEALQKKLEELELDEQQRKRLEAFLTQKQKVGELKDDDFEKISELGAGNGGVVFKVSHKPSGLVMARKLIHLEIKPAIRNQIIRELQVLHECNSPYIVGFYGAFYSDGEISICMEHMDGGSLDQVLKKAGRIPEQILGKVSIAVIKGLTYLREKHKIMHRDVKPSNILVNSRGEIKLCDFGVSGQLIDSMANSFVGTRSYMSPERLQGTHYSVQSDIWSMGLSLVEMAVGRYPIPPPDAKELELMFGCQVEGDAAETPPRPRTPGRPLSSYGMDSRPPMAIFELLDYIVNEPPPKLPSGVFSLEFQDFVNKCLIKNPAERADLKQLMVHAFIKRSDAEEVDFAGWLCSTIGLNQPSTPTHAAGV

Structure (SMILES)	IC50 [1]	% ROI Rat [2]	% ROI Dog [3]	% ROI Human [4]	% ROI Human [5]	IC50 [6]	% ROI Monkey [7]	IC50 [8]	increase of AUC of Compound 2 ([9]; after 21-day multiple BID dosing of Compound 1)	AUC of Compound 2 as % of the parent (median) ([9]; multiple dosing of Compound 1)	AUC of Compound 2 as % of the parent (median) ([9]; single dosing of Compound 1)	terminal plasma half-life compared with parent ([9]; patients, after oral Compound 1)	target suppression of pERK in tumors ([10]; 2 hours after 75 mg/kg IV)	pERK activity in tumors ([10]; 24 hours after 75 mg/kg IV)	% ROI Dog [11]	% ROI Monkey [12]	% ROI Rat [13]
O=C(NOC[C@@H](O)CO)c1ccc(F)c(F)c1Nc1ccc(I)cc1F [Compound 3]	0.83 nM																
O=C(O)c1ccc(F)c(F)c1Nc1ccc(I)cc1F [Compound 2]		1.86%	4.12%	11% and 11.07%	9% and 8.73%	1300 nM	1.72%	66 nM	2.0-5.0 fold	~120%	approximately 66%	longer than that of the parent drug	98%	returned to control levels	2.46%	5.24%	4.31%
